What was measured:
[1] = system: GENEVA cell pool of cell lines; assay: GENEVA cell pool drug sensitivity by relative cell counts from single-cell RNA sequencing; assay type: cell-based, human; conditions: pre/post drug treatment relative cell counts from GENEVA pools
From the text: This example is directed at discovery of genetic drivers of sensitivity to a drug compound by way of simultaneous inference of phenotype from a GENEVA cell pool. Long-duration growth balanced cell pools were created and subjected to drug treatment. After assignment to patient of origin and drug treatment condition using genetic demultiplexing using the method as described in Example 5 and sample hashing demultiplexing as described in Example 6, datasets were obtained with discrete numbers of cells in each drug treatment condition as evidenced in FIG. 2A,B,C,D,E,F. The relative number of viable cells remaining in each drug treatment condition for each cell type was counted and this drug sensitivity information was used as the response variable for a linear model. […]
The number of cells in each drug condition were counted according to the origin cell type. […]
fitness for cell type Ci against Drug Dx based on proportional representation was calculated as: […]
For each drug or vehicle Dx, the total number of cells was counted in each condition, the geometric mean of the total cell counts was calculated, and the total number of cells in each condition was divided by the geometric mean of the cell counts to obtain a normalization ratio. […]
For each of these fitness calculations, the relative fitness was calculated as: […]

[2] = system: H2030 (KRAS.G12C); assay: Mitochondrial content with Mitotracker Deep Red FM in long term drug tolerant line; assay type: cell-based, human; conditions: 30 day treatment, 10 uM; drug-persistent vs parental H2030

C=CC(=O)N1CCN(c2ncnc3c(F)c(-c4c(O)cccc4F)c(Cl)cc23)CC1 [ARS1620]
relative sensitivity of individual cell types (most sensitive cell lines) [1]: KRAS.G12C mutant harboring | mitochondrial content after long term treatment [2]: mitochondria are significantly ablated

Source: patent US20250003953A1, “Methods and Model Systems for Assessing Therapeutic Properties of Candidate Agents and Related Computer Readable Media and Systems” (The Regents of the University of California, priority 2021, published 2025)
